In patent publication US20240335431A1, “1-H-PYRROLO[2,3-c]PYRIDINE COMPOUNDS” (Acerta Pharma B.V., priority 2023, published 2024):
pIC50: −log10 of the molar value. Where two headings read alike, the source gives them in different places.

Columns and labels:
[1] = Caco-2 cell monolayers intrinsic permeation assay in the presence of efflux inhibitors; format: in vitro ADME; settings: Caco-2, with efflux inhibitors
Text: Caco-2 cells were obtained from American Type Culture Collection (ATCC). HEPES, penicillin, streptomycin, bovine serum albumin (BSA) were obtained from Beijing Xinjingke Biotechnology Co, Ltd. Fetal bovine serum, Hank's balanced salt solution (HBSS) and non-essential amino acids (NEAA) were purchased from Gibco. Dulbecco's Modified Eagle's Medium (DMEM) was purchased from Corning and MES from Sigma. HTS Transwell-24 permeable supports were purchased from Corning. Zosuquidar and Ko-143 were obtained from MedChemExpress and Benzbromarone from Sigma.
The Caco-2 cell culture medium consisted of DMEM with high glucose and L-glutamine supplemented with 10% FBS, 0.1 mg/mL streptomycin, 100 units of penicillin, 0.6 mg/mL kanamycin sulfate and 1×NEAA. […] culture medium was added to each Transwell insert with 800 mL added to each well of the reservoir. After incubation at 37° C. in 5% CO2 for 1 hour, the plates were ready for seeding.
The cells were cultivated in T-75 flasks at 37° C., 5% CO2, 95% relative humidity. At 80 to 90% confluence, cells were treated with trypsin/EDTA treatment until they became detached. The trypsin/EDTA was inactivated by adding excess serum containing medium. The cell suspension was centrifuged at 120 g for 10 minutes followed by resuspension of the cell pellet in seeding medium at a cell density of 7.92×10^5 cells/mL.
[…] of the resulting cell suspension was added to each well of the Transwell plate and incubated for 14 to 18 days, with medium replaced every other day. After incubation for 14 to 18 days, the cells should have reached confluence and should be tested for electrical resistance using a Millicel Epithelial Volt-Ohm measuring system (Millipore).
The cell monolayers were washed twice with pre-warmed HBSS and incubated at 37° C. for 30 minutes under gentle shaking (480 rpm).
The compound under test was presented as a 10 mM DMSO stock solution. 2 mL of the 10 mM stock was added to 8 mL DMSO to produce a 2 mM stock. 2 mL was added to 398 mL of HBSS containing 10 mM Zosuquidar, 30 mM Benzbromarone and 2 mM KO-143 to make a […] solution.
210 mL of the test compound solution was added to the apical compartment of the Transwell plate, with a 10 mL sample taken to act as the time 0 sample. The wells of the receiver (basolateral) compartment were filled with 800 mL HBSS (containing the efflux inhibitors). The plates were incubated at 37° C. with shaking at 480 rpm for 120 minutes with sampling at 45 and 120 minutes.
At each sampling time (0, 45 and 120 minutes) 10 mL was removed from the apical compartment and add to 90 mL (HBSS containing the efflux inhibitors). 100 mL was removed from each basolateral compartment. 3 volumes of cold acetonitrile containing internal standard was added to each sample and vortex mixed for 10 minutes at 100 rpm. Samples were then centrifuged at 400 rpm for 20 minutes. 50 mL of the supernatant was taken for LC/MS/MS analysis to determine compound concentration.
The apparent permeability (Papp), in units of centimetre per second, were calculated for Caco-2 drug transport using the following equation: […]
Where CR is the concentration of compound in the receiver side at the respective time point, CD is the concentration of compound in the donor side at the respective timepoint. Area is the surface area of the membrane and time is 4500 seconds (75×60 seconds).

MOLM-13 cells = assay: Proliferation assay, MOLM-13 (CellTiter-Glo, 7 days); format: cell-based, human
In short: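 Cells were seeded at line-specific low densities for linear growth, exposed to 3.16-fold serial compound dilutions at 0.1% DMSO, and incubated 7 days at 37 °C, 5% CO2. Viability was read by CellTiter-Glo 2.0 luminescence; IC50 came from one-site fits of % inhibition, normalized between DMSO-treated cells (100%) and a day-0 plate (0%).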

Compound | Papp A→B [1] [×10⁻⁶ cm/s] | pIC50 (MOLM-13 cells; Homo sapiens, MOLM-13, 168 h) | pIC50 (MOLM-13 cells)
COCCN(C)CCC[C@H](C(C)C)N1CCC(C(=O)c2cn(-c3ccc(F)cc3C(=O)N(C(C)C)C(C)C)c3cnccc23)CC1 (racemic) [Example 23, rac-(R)-5-Fluoro-N,N-diisopropyl-2-(3-(1-(6-((2-methoxyethyl)(methyl)amino)-2-methylhexan-3-yl)piperidine-4-carbonyl)-1H-pyrrolo[2,3-c]pyridin-1-yl)benzamide] | 1.5 | 7.43 | –
CC(C)N(C(=O)c1cc(F)ccc1-n1cc(C(=O)C2CCN(C(=O)[C@H]3NC[C@@H]4CC[C@@H]43)CC2)c2ccncc21)C(C)C (relative stereo) [Example 25, rel-2-(3-(1-((1R,2R,5S)-3-Azabicyclo[3.2.0]heptane-2-carbonyl)piperidine-4-carbonyl)-1H-pyrrolo[2,3-c]pyridin-1-yl)-5-fluoro-N,N-diisopropylbenzamide] | 3 | 7.30 | –
Cc1c(C(=O)C2CCN(C(=O)[C@@H]3CCC(C)(C)N3)CC2)c2ccncc2n1-c1ccc(F)cc1C(=O)N(C(C)C)C(C)C (single isomer, unassigned) [Compound 56-2] | – | – | 7.40
CCN(C(=O)c1cc(F)ccc1-n1c(C)c(C(=O)C2CCN(C(=O)[C@H]3NC[C@@H]4C[C@@H]43)CC2)c2ccncc21)C(C)C (single isomer, unassigned) [Example 48-2] | – | – | 7.57
CCN(C(=O)c1cc(F)ccc1-n1c(C)c(C(=O)C2CCN(C(=O)[C@@H]3CCC4(CC4)N3)CC2)c2ccncc21)C(C)C (single isomer, unassigned) [Example 49-2] | 6.3 | – | 7.10
CCN(C(=O)c1cc(F)ccc1-n1c(C)c(C(=O)C2CCN(C(=O)[C@@H]3CCC(C)(C)N3)CC2)c2ccncc21)C(C)C (single isomer, unassigned) [Example 50-2] | 1.2 | – | 7.36
Cc1c(C(=O)C2CCN(C(=O)[C@H]3NC[C@@H]4C[C@@H]43)CC2)c2ccncc2n1-c1ccc(F)cc1C(=O)N(CC(F)(F)F)C(C)C (single isomer, unassigned) [Example 51-2] | – | – | 7.51
CCN(C(=O)c1cc(F)ccc1-n1c(C)c(C(=O)[C@@H]2CCN(C(=O)[C@@H]3CCC4(CC4)N3)[C@@H](C)C2)c2ccncc21)C(C)C (single isomer, unassigned) [Example 52-1, N-Ethyl-5-fluoro-N-isopropyl-2-(2-methyl-3-((2R*,4S*)-2-methyl-1-((S)-4-azaspiro[2.4]heptane-5-carbonyl)piperidine-4-carbonyl)-1H-pyrrolo[2,3-c]pyridin-1-yl)benzamide] | 10.9 | – | –
CCN(C(=O)c1cc(F)ccc1-n1c(C)c(C(=O)[C@@H]2CCN(C(=O)[C@@H]3CCC4(CC4)N3)[C@@H](C)C2)c2ccncc21)C(C)C (single isomer, unassigned) [Example 52-2, N-Ethyl-5-fluoro-N-isopropyl-2-(2-methyl-3-((2R*,4S*)-2-methyl-1-((S)-4-azaspiro[2.4]heptane-5-carbonyl)piperidine-4-carbonyl)-1H-pyrrolo[2,3-c]pyridin-1-yl)benzamide] | – | – | 7.32
Cc1c(C(=O)[C@@H]2CCN(C(=O)[C@H]3NC[C@@H]4C[C@@H]43)[C@@H](C)C2)c2ccncc2n1-c1ccc(F)cc1C(=O)N(CC(F)(F)F)C(C)C (single isomer, unassigned) [Example 53-3, 2-(3-((2R*,4S*)-1-((1S,2S,5R)-3-Azabicyclo[3.1.0]hexane-2-carbonyl)-2-methylpiperidine-4-carbonyl)-2-methyl-1H-pyrrolo[2,3-c]pyridin-1-yl)-5-fluoro-N-isopropyl-N-(2,2,2-trifluoroethyl)benzamide] | 3.6 | – | 7.82
Cc1c(C(=O)C2CCN(C(=O)[C@@H]3CCC(C)(C)N3)CC2)c2ccncc2n1-c1ccc(F)cc1C(=O)N(C(C)C)C(C)C (single isomer, unassigned) [Example 56-1] | 2.8 | – | 5.71
Cc1c(C(=O)C2CCN(C(=O)[C@@H]3CCC4(CC4)N3)CC2)c2ccncc2n1-c1ccc(F)cc1C(=O)N1[C@H](C)COC[C@H]1C (single isomer, unassigned) [Example 58-2] | 5.4 | – | 7.43
Cc1c(C(=O)[C@@H]2CCN(C(=O)[C@@H]3CC[C@H](C)N3)[C@@H](C)C2)c2ccncc2n1-c1ccc(F)cc1C(=O)N(C(C)C)C(C)C (stereo in doubt) [Example 62, 5-Fluoro-N,N-diisopropyl-2-(2-methyl-3-((2S,4RS)-2-methyl-1-((2S,5S)-5-methylpyrrolidine-2-carbonyl)piperidine-4-carbonyl)-1H-pyrrolo[2,3-c]pyridin-1-yl)benzamide] | 4.9 | 7.28 | –
CCN(C(=O)c1cc(F)ccc1-n1c(C)c(C(=O)[C@@H]2CCN(C(=O)[C@@H]3CC[C@H](C)N3)[C@@H](C)C2)c2ccncc21)C(C)C (stereo in doubt) [Example 63, N-Ethyl-5-fluoro-N-isopropyl-2-(2-methyl-3-((2S,4RS)-2-methyl-1-((2S,5S)-5-methylpyrrolidine-2-carbonyl)piperidine-4-carbonyl)-1H-pyrrolo[2,3-c]pyridine-1-yl)benzamide] | 1.5 | 7.33 | –

More lines, now with the values ahead:

Papp A→B [1] [×10⁻⁶ cm/s] | pIC50 (MOLM-13 cells; Homo sapiens, MOLM-13, 168 h) | pIC50 (MOLM-13 cells) | Compound
– | – | 5.90 | CCN(C(=O)c1cc(F)ccc1-n1c(C)c(C(=O)C2CCN(C(=O)[C@H]3NC[C@@H]4C[C@@H]43)CC2)c2ccncc21)C(C)C (single isomer, unassigned) [Example 48-1]
1.7 | – | 5.79 | Cc1c(C(=O)C2CCN(C(=O)[C@H]3NC[C@@H]4C[C@@H]43)CC2)c2ccncc2n1-c1ccc(F)cc1C(=O)N(CC(F)(F)F)C(C)C (single isomer, unassigned) [Example 51-1]
3.7 | – | 5.90 | Cc1c(C(=O)C2CCN(C(=O)[C@H]3NC[C@@H]4C[C@@H]43)CC2)c2ccncc2n1-c1ccc(F)cc1C(=O)N(C(C)C)C(C)C (single isomer, unassigned) [Example 55-1]
– | – | 7.60 | Cc1c(C(=O)C2CCN(C(=O)[C@H]3NC[C@@H]4C[C@@H]43)CC2)c2ccncc2n1-c1ccc(F)cc1C(=O)N(C(C)C)C(C)C (single isomer, unassigned) [Example 55-2]
– | – | 7.03 | Cc1c(C(=O)C2CCN(C(=O)[C@H]3NC[C@@H]4C[C@@H]43)CC2)c2ccncc2n1-c1ccc(F)cc1C(=O)N(C(C)C)[C@H](C)C(F)(F)F (single isomer, unassigned) [Example 57-1]
4.3 | 7.28 | – | Cc1c(C(=O)[C@@H]2CCN(C(=O)[C@@H]3CC[C@@H](C)N3)[C@@H](C)C2)c2ccncc2n1-c1ccc(F)cc1C(=O)N(C(C)C)C(C)C (stereo in doubt) [Example 64, 5-Fluoro-N,N-diisopropyl-2-(2-methyl-3-((2S,4RS)-2-methyl-1-((2S,5R)-5-methylpyrrolidine-2-carbonyl)piperidine-4-carbonyl)-1H-pyrrolo[2,3-c]pyridin-1-yl)benzamide]
1.7 | 7.25 | – | CCN(C(=O)c1cc(F)ccc1-n1c(C)c(C(=O)[C@@H]2CCN(C(=O)[C@@H]3CC[C@@H](C)N3)[C@@H](C)C2)c2ccncc21)C(C)C (stereo in doubt) [Example 65, N-Ethyl-5-fluoro-N-isopropyl-2-(2-methyl-3-((2S,4RS)-2-methyl-1-((2S,5R)-5-methylpyrrolidine-2-carbonyl)piperidine-4-carbonyl)-1H-pyrrolo[2,3-c]pyridin-1-yl)benzamide]
